Measurements from US7476673B2, “Disubstituted chalcone oximes as selective agonists of RARγ retinoid receptors” (Allergan, Inc., priority 2003, dated 2009).

What was measured:
RARα [1] = target: T1, RARα (Homo sapiens, UniProt P10276); experiment: ligand binding assay, RARα; conditions: results expressed in Ki numbers, read-out: RAR Binding α
T1 sequence (P10276 1-462): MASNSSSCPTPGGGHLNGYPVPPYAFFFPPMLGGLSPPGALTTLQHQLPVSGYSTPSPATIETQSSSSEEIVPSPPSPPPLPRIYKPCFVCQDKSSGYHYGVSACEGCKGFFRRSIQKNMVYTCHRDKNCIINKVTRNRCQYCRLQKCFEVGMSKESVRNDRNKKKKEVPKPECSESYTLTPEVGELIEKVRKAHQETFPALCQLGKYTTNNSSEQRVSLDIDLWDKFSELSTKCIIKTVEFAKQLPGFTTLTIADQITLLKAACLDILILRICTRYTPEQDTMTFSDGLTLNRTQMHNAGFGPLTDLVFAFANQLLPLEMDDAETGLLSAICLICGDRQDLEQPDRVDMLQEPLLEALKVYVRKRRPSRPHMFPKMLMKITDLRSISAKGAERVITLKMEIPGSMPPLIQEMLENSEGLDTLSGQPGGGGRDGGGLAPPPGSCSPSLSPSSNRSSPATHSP
Excerpt: (§1) A holoreceptor transactivation assay and a ligand binding assay which measure the antagonist/agonist like activity of the compounds of the invention, or their ability to bind to the several retinoid receptor subtypes, respectively, are described in published PCT Application No. WO WO93/11755 (particularly on pages 30-33 and 37-41) published on Jun. 24, 1993, the specification of which is also incorporated herein by reference. A detailed experimental procedure for holoreceptor transactivations has been described by Heyman et al. Cell 68, 397-406, (1992); Allegretto et al. J. Biol. Chem. 268, 26625-26633, and Mangelsdorf et al. The Retinoids: Biology, Chemistry and Medicine, pp 319-349, Raven Press Ltd., New York, which are expressly incorporated herein by reference. The results obtained in this assay are expressed in EC50 numbers, as they are also in the chimeric receptor transactivation assay. The results of the ligand binding assay are expressed in Ki numbers. (See Cheng et al. Biochemical Pharmacology Vol. 22 pp 3099-3108, expressly incorporated herein by reference.)
(§2) Table 1 discloses the activity of certain exemplary compounds of the invention in the above-described chimeric RAR receptor transactivation and binding assays.

RARβ [2] = target: T2, RARβ (Homo sapiens, UniProt P10826); experiment: ligand binding assay, RARβ; conditions: results expressed in Ki numbers, read-out: RAR Binding β
T2 sequence (P10826 1-455): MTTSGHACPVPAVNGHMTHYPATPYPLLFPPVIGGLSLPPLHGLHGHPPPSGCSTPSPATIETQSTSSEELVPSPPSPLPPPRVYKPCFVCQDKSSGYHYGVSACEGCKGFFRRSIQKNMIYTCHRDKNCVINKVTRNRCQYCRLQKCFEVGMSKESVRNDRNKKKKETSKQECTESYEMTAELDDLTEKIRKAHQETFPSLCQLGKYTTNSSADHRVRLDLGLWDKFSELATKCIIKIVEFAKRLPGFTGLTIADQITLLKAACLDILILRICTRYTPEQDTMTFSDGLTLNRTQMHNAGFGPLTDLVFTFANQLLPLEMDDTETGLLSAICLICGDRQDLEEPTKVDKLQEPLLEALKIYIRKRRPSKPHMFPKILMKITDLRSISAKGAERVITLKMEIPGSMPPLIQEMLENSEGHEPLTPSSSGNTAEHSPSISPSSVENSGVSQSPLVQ
Excerpt: as §1, §2

RARγ [3] = target: T3, RARγ (Homo sapiens, UniProt P13631); experiment: ligand binding assay, RARγ; conditions: results expressed in Ki numbers, read-out: RAR Binding γ
T3 sequence (P13631 1-454): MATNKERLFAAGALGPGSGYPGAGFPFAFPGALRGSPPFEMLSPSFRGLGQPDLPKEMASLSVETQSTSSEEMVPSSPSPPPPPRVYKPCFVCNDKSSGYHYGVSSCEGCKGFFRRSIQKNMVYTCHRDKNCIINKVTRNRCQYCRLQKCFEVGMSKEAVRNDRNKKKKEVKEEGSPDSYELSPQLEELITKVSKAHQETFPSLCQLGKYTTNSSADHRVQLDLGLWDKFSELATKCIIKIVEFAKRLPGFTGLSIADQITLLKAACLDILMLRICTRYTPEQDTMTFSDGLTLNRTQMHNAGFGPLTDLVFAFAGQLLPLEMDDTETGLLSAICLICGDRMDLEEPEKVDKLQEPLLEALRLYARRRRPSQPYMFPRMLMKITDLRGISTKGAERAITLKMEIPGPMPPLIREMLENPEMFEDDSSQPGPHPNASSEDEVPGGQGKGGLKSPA
Excerpt: as §1, §2

RARα [4] = target: T4, RARα (Homo sapiens, UniProt P10276); experiment: chimeric receptor transactivation assay, RARα; format: cell-based; conditions: for EC50: chimeric receptor transactivation, read-out: RAR EC50 α; for % Efficiency α: percentage of maximum compared to standard TTNPB
T4 sequence (P10276 183-417 limits assumed): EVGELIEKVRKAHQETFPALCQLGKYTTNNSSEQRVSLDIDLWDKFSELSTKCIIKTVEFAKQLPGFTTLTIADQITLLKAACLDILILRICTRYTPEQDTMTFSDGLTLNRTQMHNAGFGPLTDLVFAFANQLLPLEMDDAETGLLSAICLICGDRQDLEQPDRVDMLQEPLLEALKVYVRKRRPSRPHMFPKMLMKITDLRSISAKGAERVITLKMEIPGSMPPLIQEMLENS
Protocol: (§3) The compounds of the invention were tested in certain assays for activity as agonists of RAR and RXR retinoid receptors. Specifically, one such assay is a chimeric receptor transactivation assay which tests for agonist-like activity in the RARα, RARβ and RARγ receptor subtypes, and which is based on work published by Feigner P. L. and Holm M. (1989) Focus, 112 is described in detail in U.S. Pat. No. 5,455,265. The specification of U.S. Pat. No. 5,455,265 is hereby expressly incorporated by reference.
as §1
(§4) Efficacy in a transactivation assay is expressed as a percentage of the maximum potency attained by the compound compared to a standard which, in this case, is the compound 4-[(1E)-2-(5,6,7,8-tetrahydro-5,5,8,8-tetramethyl-2-naphthalenyl)-1-propenyl]-benzoic acid. (TTNPB) This standard compound is described in PCT Publication WO 2002077169 A2.
as §2

RARβ [5] = target: T5, RARβ (Homo sapiens, UniProt P10826); experiment: chimeric receptor transactivation assay, RARβ; format: cell-based; conditions: for EC50: chimeric receptor transactivation, read-out: RAR EC50 β; for % Efficiency β: percentage of maximum compared to standard TTNPB
T5 sequence (P10826 183-455 limits assumed): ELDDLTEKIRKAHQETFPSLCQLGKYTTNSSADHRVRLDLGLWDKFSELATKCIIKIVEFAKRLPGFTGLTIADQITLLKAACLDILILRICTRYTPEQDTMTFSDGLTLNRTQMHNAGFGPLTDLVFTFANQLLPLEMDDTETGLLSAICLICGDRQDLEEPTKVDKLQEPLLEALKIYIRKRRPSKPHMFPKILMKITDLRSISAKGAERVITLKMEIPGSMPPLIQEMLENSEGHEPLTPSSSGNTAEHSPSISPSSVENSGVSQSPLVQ
Protocol: as §3, §1, §4, §2

RARγ [6] = target: T6, RARγ (Homo sapiens, UniProt P13631); experiment: chimeric receptor transactivation assay, RARγ; format: cell-based; conditions: for EC50: chimeric receptor transactivation, read-out: RAR EC50 γ; for % Efficiency γ: percentage of maximum compared to standard TTNPB
T6 construct: % Efficiency γ; other: percentage of maximum compared to standard TTNPB
T6 sequence (P13631 185-454 limits assumed): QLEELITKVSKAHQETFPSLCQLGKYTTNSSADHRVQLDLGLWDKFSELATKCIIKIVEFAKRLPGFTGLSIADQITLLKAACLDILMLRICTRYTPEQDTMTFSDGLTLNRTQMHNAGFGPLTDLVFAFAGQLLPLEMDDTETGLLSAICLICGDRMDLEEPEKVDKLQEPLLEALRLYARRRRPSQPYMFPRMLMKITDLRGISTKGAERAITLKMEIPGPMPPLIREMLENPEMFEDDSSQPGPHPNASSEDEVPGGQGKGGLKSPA
Protocol: as §3, §1, §4, §2

Row | Structure (SMILES) | Ki (RARα [1]) [nM] | Ki (RARβ [2]) [nM] | Ki (RARγ [3]) [nM] | EC50 (RARα [4]) [nM] | EC50 (RARβ [5]) [nM] | % Efficiency β (RARβ [5]) [%] | EC50 (RARγ [6]) [nM] | % Efficiency γ (RARγ [6]) [%] | % Efficiency α (RARα [4]) [%]
1 | CCCCCCCN1C(=O)CC(C)(C)c2cc(C(/C=C/c3ccc(C(=O)O)cc3)=N\O)ccc21 | 17000 | 9000 | 32 | > 1000 | 473 | 23 | 92 | 35 | –
2 | CC1(C)CC(C)(C)c2cc(C(/C=C/c3ccc(C(=O)O)cc3F)=N\O)ccc21 | 13000 | 27000 | 264 | > 1000 | 249 | 82 | 9 | 79 | –
3 | CC1(C)CCC(C)(C)c2cc(C(C=Cc3ccc(C(=O)O)cc3F)=NO)ccc21 [drawing 10] | 8000 | 5000 | 4 | > 1000 | 53 | 84 | 0.11 | 84 | –
4 | CC1(C)CCSc2ccc(C(/C=C/c3ccc(C(=O)O)cc3F)=N\O)cc21 | 10000 | 10000 | 19 | > 1000 | 503 | 45 | 21 | 120 | –
5 | CC1(C)CCCc2cc(C(C=Cc3ccc(C(=O)O)cc3)=NO)ccc21 [drawing 16] | 2000 | > 10000 | 6000 | > 10000 | > 10000 | – | > 10000 | – | –
6 | CC1(C)CCSc2ccc(C(/C=C/c3ccc(C(=O)O)cc3F)=N/O)cc21 | 10000 | 8000 | 15 | > 1000 | 173 | 55 | 10 | 90 | –
7 | CC1(C)CCC(C)(C)c2cc(C(C=Cc3ccc(C(=O)O)cc3)=NO)ccc21 [drawing 9] | 2400 | 2000 | 14 | 150 | 34 | 112 | 0.37 | 114 | 81
8 | CC1(C)CCC(C)(C)c2cc(C(C=Cc3ccc(C(=O)O)cc3)=NO)ccc21 [drawing 8] | 2500 | 1300 | 3 | 441 | 31 | 102 | 0.09 | 103 | 81
9 | CC1=CCC(C)(C)c2cc(C(/C=C/c3ccc(C(=O)O)cc3F)=N\O)ccc21 | 18000 | 11000 | 28 | > 1000 | 445 | 92 | 11 | 90 | –
10 | CCCCCCCN1C(=O)CC(C)(C)c2cc(C(C=Cc3ccc(C(=O)O)cc3)=NO)ccc21 | 11000 | 29000 | 51 | > 1000 | – | – | 10 | 11 | –

More lines, now with the values ahead:

Row | Ki (RARα [1]) [nM] | Ki (RARβ [2]) [nM] | Ki (RARγ [3]) [nM] | EC50 (RARα [4]) [nM] | EC50 (RARβ [5]) [nM] | % Efficiency β (RARβ [5]) [%] | EC50 (RARγ [6]) [nM] | % Efficiency γ (RARγ [6]) [%] | % Efficiency α (RARα [4]) [%] | Structure (SMILES)
11 | 7000 | 17000 | 6 | 148 | 83 | 104 | 0.2 | 71 | 55 | CC1(C)CC(C)(C)c2cc(C(C=Cc3ccc(C(=O)O)cc3)=NO)ccc21 [drawing 30]
12 | 25000 | – | 461 | 128 | 77 | 110 | 143 | 151 | 54 | CC1(C)CCC(C)(C)c2nc(C(C=Cc3ccc(C(=O)O)cc3)=NO)cnc21 [drawing 35]
13 | 5000 | 1080 | 6 | 242 | 79 | 87 | 0.75 | 88 | 117 | CC1(C)CCSc2ccc(C(C=Cc3ccc(C(=O)O)cc3)=NO)cc21 [drawing 18]
14 | 27000 | – | 240 | 4000 | 105 | 88 | 10 | 123 | 41 | CC1(C)CCC(C)(C)c2nc(C(C=Cc3ccc(C(=O)O)cc3)=NO)cnc21 [drawing 34]
15 | 4500 | 1230 | 55 | > 1000 | 103 | 102 | 15 | 100 | – | CC1(C)CCSc2ccc(C(C=Cc3ccc(C(=O)O)cc3)=NO)cc21 [drawing 20]
16 | 8000 | 28000 | 1850 | > 1000 | 157 | 14 | 35 | 67 | – | Cc1cc2c(cc1C(C=Cc1ccc(C(=O)O)cc1)=NO)C(C)(C)CCC2(C)C [drawing 37]
